# Test system: isolierter Meerschweinchen-Herzvorhöfe
# Assay: Effect on contraction amplitude of isolated guinea pig heart atria
# Conditions: Wirkstoffkonzentration 10⁻³ g/l, read-out: Substanzeffekte auf die Kontraktionsamplitude, Änderung in %
compound,measurement,value
"CCCCCCCCCCOC(=O)C1=C(C)NC(C)=C([N+](=O)[O-])C1c1ccccc1OC(F)F (racemic) [Beispiel 1, 4-(2-Difluormethoxyphenyl)-1,4-dihydro-2,6-dimethyl-3-nitro-pyridin-5-carbonsäure-decylester]",activation at 1 µg/mL,45%

# From patent EP0315019A2, “Fluoromethoxyphenyl-dihydropyridines, process for their preparation and their use in drugs” (BAYER AG, priority 1987, dated 1989)
